Laboratory results: publication PMC2873402, “Discovery of High-Affinity Protein Binding Ligands – Backwards” (PLoS ONE, 2010)
Bridge positions count the residues as written; N and C are the ends. Ends that are not written are not given here. I, II: the chains in the order shown. * marks the point of attachment. StBu = CC(C)(C)S*

Experiments:
AKT3 = experiment: Protein array (ProtoArray), binding to AKT3; design: species or system human
Description: Synbodies were screened on an Invitrogen ProtoArray™ (Life Technologies, Carlsbad, CA, USA) detected with Alexa-555 labeled streptavidin (Life Technologies), and scanned using a Perkin Elmer ProScan Array HTP. The spots were analyzed using GenePix Pro (Molecular Devices, Sunnyvale, CA, USA) and data were processed using Genespring GX (Agilent Technologies, Santa Clara, CA, USA). Synbodies were labeled with biotin using either Maleimide-PEG2-Biotin (Thermo Pierce, Rockford, IL, USA) to label the C-terminal cysteine or biotin was incorporated during synbody synthesis by replacing the C-terminal cysteine with Lys-biotin (Novabiochem, San Diego, CA, USA). Synbodies were screened on the array using the recommended protocol with the following modifications: the arrays were blocked with 5 mL blocking buffer (50mM HEPES pH 7.5, 200 mM NaCl, 0.08% Triton X-100, 25% Glycerol, 20mM reduced Glutathione, 1.0mM DTT, 1% BSA) for 90 min. A 200 nM synbody solution was incubated in probing buffer (1× PBS, 1% BSA, 0.1% Tween) for 90 minutes. Slides were dried by centrifugation at 200g for 1 minute and scanned at 100% laser power and 70% photomultiplier voltage. The gal file was obtained for each array by submitting the barcode of the array to www.invitrogen.com/protoarray.
Heat maps were constructed using median-normalized data from each ProtoArray. […]

AKT2 = experiment: IP of AKT isoforms spiked into A549 lysate: AKT2; type: binding; details: 250 ng of each isoform in 500 µg A549 lysate, Western Blot
Description: This apparent specificity was investigated further by performing an IP using 250 ng of each isoform of AKT spiked into 500 µg of A-549 cell lysate.
(§1) For all IP experiments, either a 1 µM or 250 nM solution of biotin-conjugated synbody was captured on 20 µL of streptavidin coated paramagnetic M-280 Dynabeads (Life Technologies) according to the manufacturers protocol. Synbody coated beads were washed five times with 1 mL of 100 mM phosphate buffered saline containing 0.05% Tween-20 (PBST) and incubated overnight at 4°C with shaking in the desired amount of target protein in A549 cell lysate. For Kd determination experiments, serial dilutions of AKT1 or ABL1 were prepared in binding buffer. After binding, beads were washed five times with 1 mL of PBST and heated at 70°C in 20 µL of 1× LDS loading buffer (Invitrogen) for 10 minutes. The samples were analyzed by SDS-PAGE gel with Western Blot detection using the appropriate antibody and imaged on a GE Healthcare Typhoon Trio.

AKT1 [1] = molecular target: T1, AKT1 (Homo sapiens, UniProt P31749); experiment: IP of 35S-labeled AKT1, scintillation counting; type: binding; design: N-terminal vector leader of pEXP5-NT (6xHis + TEV site by own knowledge of the vector); made in house; host or cells: Expressway Mini Cell-Free Expression System (in vitro translation); details: AKT1 approximately 3% of total protein
Description: In order to validate the Kd determined by SPR, an additional IP was performed using ^35S-labeled AKT1 produced by in vitro translation (IVT). The translation mixture contained 12 µg of AKT1 in the presence of 400 µg of total protein and a concentration series of ^35S-labeled AKT1 from 41.5 nM to 80 pM was prepared by dilution of the 35-S-labeled AKT1 IVT mixture. The synbody was then used to precipitate the ^35S-labeled AKT1 in the same manner as before. Bound AKT1 was quantified using liquid scintillation counting and plotted as a function of AKT1 concentration.
AKT1 DNA was assembled by ligation of 42-bp oligonucleotides by PCR according to a procedure developed internally (Borovkov, et al. submitted). The PCR product was cloned into pEXP5-NT topo expression vector (Life Technologies), purified using a Qaigen PCR purification kit, and quantified by Nanodrop spectrophotometer (Thermo Scientific). […]
For all IP experiments, either a 1 µM or 250 nM solution of biotin-conjugated synbody was captured on 20 µL of streptavidin coated paramagnetic M-280 Dynabeads (Life Technologies) according to the manufacturers protocol. […] The samples were analyzed by SDS-PAGE gel with Western Blot detection using the appropriate antibody and imaged on a GE Healthcare Typhoon Trio.

AKT1 [2] = molecular target: T1, AKT1; experiment: IP of endogenous AKT1 from A549 lysate; type: binding; design: N-terminal vector leader of pEXP5-NT (6xHis + TEV site by own knowledge of the vector); made in house; host or cells: Expressway Mini Cell-Free Expression System (in vitro translation); details: un-stimulated A549 lysate, 25 pmols synbody
Description: As a preliminary test of specificity, 200 ng of AKT1 (33.2 nM) was spiked into increasing amounts of cell lysate prepared from un-stimulated A549 lung epithelial cells and streptavidin beads coated with 25 pmols of synbody (7.6∶1 synbody-to-AKT1 ratio) were used to pull down AKT1 using the same IP procedure and Western Blot protocol as before.
as §1

T1 sequence (P31749 whole entry): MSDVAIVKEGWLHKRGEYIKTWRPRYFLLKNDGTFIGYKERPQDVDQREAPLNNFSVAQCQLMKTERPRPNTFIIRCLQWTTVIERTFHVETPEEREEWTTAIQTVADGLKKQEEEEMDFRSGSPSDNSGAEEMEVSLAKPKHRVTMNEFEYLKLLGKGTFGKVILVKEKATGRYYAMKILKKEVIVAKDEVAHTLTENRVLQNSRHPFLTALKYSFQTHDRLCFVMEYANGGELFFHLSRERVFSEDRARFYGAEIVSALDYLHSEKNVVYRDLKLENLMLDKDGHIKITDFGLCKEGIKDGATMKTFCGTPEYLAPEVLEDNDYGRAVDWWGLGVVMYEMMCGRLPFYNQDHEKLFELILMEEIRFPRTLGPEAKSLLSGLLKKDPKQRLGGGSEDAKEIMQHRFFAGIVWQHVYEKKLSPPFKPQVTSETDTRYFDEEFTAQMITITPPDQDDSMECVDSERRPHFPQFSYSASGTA

Substance: I: AHKVVPQRQIRHAYNRYGSGKC(StBu)-NH2 / II: FRGWAHIFFGPHVIYRGGSG (amide I:21-II:C) [synbody]
- binding to AKT3 on protein array (AKT3): little binding
- IP of AKT2 (isoform selectivity) (AKT2): relatively little
- specificity for AKT1 in IVT lysate (AKT1 [1]): specifically binds AKT1 from a complex background
- precipitation of endogenous AKT1 (AKT1 [2]): precipitates the very low level endogenous AKT1 from the un-stimulated cell lysate
